Laboratory results from PubChem BioAssay (NCI).
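Results reflect a 48-hour exposure of cells in 96-well plates to compound at five concentrations. TGI: concentration producing complete growth inhibition.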

test system: HCC-2998 colon; assay: growth of human tumour cells (NCI), 48 h

**Q.** How did the TGI turn out when `CC(=O)NNc1nc(C)c(C(=O)NNC(=O)C(=O)Nc2c(Cl)cc([N+](=O)[O-])cc2Cl)s1` was run?
**A.** The TGI was > 100 µM.

**Q.** How did the TGI turn out when `CC(C)CC(=O)OC[n+]1ccc(-c2c(COC(=O)NC(C)C)c(COC(=O)NC(C)C)c3n2CCC3)cc1` was run?
**A.** Its TGI is > 100 µM.

test system: IGROV1 ovarian; assay: growth of human tumour cells (NCI), 48 h

**Q.** `O=CC[C@H]1C(=O)C[C@@H]2CCC[C@@H]21` was tested. Which TGI did it give?
**A.** Its TGI is > 100 µM.

**Q.** `O=[N+]([O-])C(=C1NCCN1)/C(Cl)=C(\Cl)Br` was tested. Which TGI did it give?
**A.** Its TGI is > 100 µM.

**Q.** Which TGI does the source give for `COc1cc(/C=C/C(=N\NS(=O)(=O)c2ccc(C)cc2)c2sc(NNC(C)=O)nc2C)ccc1O` here?
**A.** The TGI was > 100 µM.

**Q.** `Clc1cc(OC2C3CC4CC(C3)CC2C4)nc(Cl)n1` (configuration not stated) was tested. Which TGI did it give?
**A.** The TGI was 23.3 µM.

**Q.** How did the TGI turn out when `CC(=O)NNc1nc(C)c(C(=O)NNC(=O)C(=O)Nc2c(Cl)cc([N+](=O)[O-])cc2Cl)s1` was run?
**A.** The TGI was > 100 µM.

**Q.** Which TGI does the source give for `CC(C)CC(=O)OC[n+]1ccc(-c2c(COC(=O)NC(C)C)c(COC(=O)NC(C)C)c3n2CCC3)cc1` here?
**A.** The TGI was > 100 µM.

test system: 786-0 renal; assay: growth of human tumour cells (NCI), 48 h

**Q.** Which TGI does the source give for `CN(C)C(=N)c1ccccc1` here?
**A.** Its TGI is > 100 µM.

**Q.** For `O=CC[C@H]1C(=O)C[C@@H]2CCC[C@@H]21`, which TGI is on record?
**A.** Its TGI is > 100 µM.

**Q.** With `O=[N+]([O-])C(=C1NCCN1)/C(Cl)=C(\Cl)Br` as the molecule, how does the TGI read?
**A.** The TGI was 33.5 µM.

**Q.** Which TGI does the source give for `COc1cc(/C=C/C(=N\NS(=O)(=O)c2ccc(C)cc2)c2sc(NNC(C)=O)nc2C)ccc1O` here?
**A.** The TGI was > 100 µM.

**Q.** For `Clc1cc(OC2C3CC4CC(C3)CC2C4)nc(Cl)n1` (configuration not stated), which TGI is on record?
**A.** The TGI was 33.5 µM.

**Q.** Which TGI does the source give for `CC(=O)NNc1nc(C)c(C(=O)NNC(=O)C(=O)Nc2c(Cl)cc([N+](=O)[O-])cc2Cl)s1` here?
**A.** The TGI was > 100 µM.

**Q.** Which TGI does the source give for `CC(C)CC(=O)OC[n+]1ccc(-c2c(COC(=O)NC(C)C)c(COC(=O)NC(C)C)c3n2CCC3)cc1` here?
**A.** Its TGI is > 100 µM.

test system: SR leukemia; assay: growth of human tumour cells (NCI), 48 h

**Q.** How did the TGI turn out when `CN(C)C(=N)c1ccccc1` was run?
**A.** Its TGI is > 100 µM.

**Q.** Which TGI does the source give for `O=[N+]([O-])C(=C1NCCN1)/C(Cl)=C(\Cl)Br` here?
**A.** The TGI was 55.4 µM.

**Q.** With `COc1cc(/C=C/C(=N\NS(=O)(=O)c2ccc(C)cc2)c2sc(NNC(C)=O)nc2C)ccc1O` as the molecule, how does the TGI read?
**A.** Its TGI is > 100 µM.

**Q.** With `Clc1cc(OC2C3CC4CC(C3)CC2C4)nc(Cl)n1` (configuration not stated) as the molecule, how does the TGI read?
**A.** The TGI was 11.7 µM.

**Q.** How did the TGI turn out when `CC(=O)NNc1nc(C)c(C(=O)NNC(=O)C(=O)Nc2c(Cl)cc([N+](=O)[O-])cc2Cl)s1` was run?
**A.** The TGI was > 100 µM.

**Q.** Which TGI does the source give for `CC(C)CC(=O)OC[n+]1ccc(-c2c(COC(=O)NC(C)C)c(COC(=O)NC(C)C)c3n2CCC3)cc1` here?
**A.** The TGI was > 100 µM.

test system: NCI-H460 lung; assay: growth of human tumour cells (NCI), 48 h

**Q.** For `CN(C)C(=N)c1ccccc1`, which TGI is on record?
**A.** The TGI was > 100 µM.

**Q.** For `O=CC[C@H]1C(=O)C[C@@H]2CCC[C@@H]21`, which TGI is on record?
**A.** The TGI was > 100 µM.

**Q.** With `O=[N+]([O-])C(=C1NCCN1)/C(Cl)=C(\Cl)Br` as the molecule, how does the TGI read?
**A.** The TGI was > 100 µM.

**Q.** `COc1cc(/C=C/C(=N\NS(=O)(=O)c2ccc(C)cc2)c2sc(NNC(C)=O)nc2C)ccc1O` was tested. Which TGI did it give?
**A.** Its TGI is > 100 µM.

**Q.** `Clc1cc(OC2C3CC4CC(C3)CC2C4)nc(Cl)n1` (configuration not stated) was tested. Which TGI did it give?
**A.** The TGI was 31.6 µM.

**Q.** With `CC(=O)NNc1nc(C)c(C(=O)NNC(=O)C(=O)Nc2c(Cl)cc([N+](=O)[O-])cc2Cl)s1` as the molecule, how does the TGI read?
**A.** The TGI was > 100 µM.

**Q.** How did the TGI turn out when `CC(C)CC(=O)OC[n+]1ccc(-c2c(COC(=O)NC(C)C)c(COC(=O)NC(C)C)c3n2CCC3)cc1` was run?
**A.** Its TGI is > 100 µM.

test system: MOLT-4 leukemia; assay: growth of human tumour cells (NCI), 48 h

**Q.** With `O=CC[C@H]1C(=O)C[C@@H]2CCC[C@@H]21` as the molecule, how does the TGI read?
**A.** The TGI was > 100 µM.

**Q.** `O=[N+]([O-])C(=C1NCCN1)/C(Cl)=C(\Cl)Br` was tested. Which TGI did it give?
**A.** The TGI was 65.7 µM.

**Q.** For `COc1cc(/C=C/C(=N\NS(=O)(=O)c2ccc(C)cc2)c2sc(NNC(C)=O)nc2C)ccc1O`, which TGI is on record?
**A.** Its TGI is > 100 µM.

**Q.** With `Clc1cc(OC2C3CC4CC(C3)CC2C4)nc(Cl)n1` (configuration not stated) as the molecule, how does the TGI read?
**A.** The TGI was 34.8 µM.

**Q.** How did the TGI turn out when `CC(=O)NNc1nc(C)c(C(=O)NNC(=O)C(=O)Nc2c(Cl)cc([N+](=O)[O-])cc2Cl)s1` was run?
**A.** Its TGI is 97.6 µM.

**Q.** How did the TGI turn out when `CC(C)CC(=O)OC[n+]1ccc(-c2c(COC(=O)NC(C)C)c(COC(=O)NC(C)C)c3n2CCC3)cc1` was run?
**A.** The TGI was > 100 µM.

test system: UACC-257 melanoma; assay: growth of human tumour cells (NCI), 48 h

**Q.** For `CN(C)C(=N)c1ccccc1`, which TGI is on record?
**A.** Its TGI is > 100 µM.

**Q.** `O=CC[C@H]1C(=O)C[C@@H]2CCC[C@@H]21` was tested. Which TGI did it give?
**A.** Its TGI is > 100 µM.

**Q.** `O=[N+]([O-])C(=C1NCCN1)/C(Cl)=C(\Cl)Br` was tested. Which TGI did it give?
**A.** The TGI was > 87.3 µM.

**Q.** For `COc1cc(/C=C/C(=N\NS(=O)(=O)c2ccc(C)cc2)c2sc(NNC(C)=O)nc2C)ccc1O`, which TGI is on record?
**A.** Its TGI is > 100 µM.

**Q.** `Clc1cc(OC2C3CC4CC(C3)CC2C4)nc(Cl)n1` (configuration not stated) was tested. Which TGI did it give?
**A.** The TGI was 27.4 µM.

**Q.** Which TGI does the source give for `CC(=O)NNc1nc(C)c(C(=O)NNC(=O)C(=O)Nc2c(Cl)cc([N+](=O)[O-])cc2Cl)s1` here?
**A.** The TGI was 68.7 µM.

**Q.** For `CC(C)CC(=O)OC[n+]1ccc(-c2c(COC(=O)NC(C)C)c(COC(=O)NC(C)C)c3n2CCC3)cc1`, which TGI is on record?
**A.** Its TGI is > 100 µM.

test system: RXF 393 renal; assay: growth of human tumour cells (NCI), 48 h

**Q.** `CN(C)C(=N)c1ccccc1` was tested. Which TGI did it give?
**A.** Its TGI is > 100 µM.

**Q.** With `O=CC[C@H]1C(=O)C[C@@H]2CCC[C@@H]21` as the molecule, how does the TGI read?
**A.** Its TGI is > 100 µM.

**Q.** With `O=[N+]([O-])C(=C1NCCN1)/C(Cl)=C(\Cl)Br` as the molecule, how does the TGI read?
**A.** Its TGI is 39.1 µM.

**Q.** How did the TGI turn out when `COc1cc(/C=C/C(=N\NS(=O)(=O)c2ccc(C)cc2)c2sc(NNC(C)=O)nc2C)ccc1O` was run?
**A.** Its TGI is > 100 µM.

**Q.** Which TGI does the source give for `Clc1cc(OC2C3CC4CC(C3)CC2C4)nc(Cl)n1` (configuration not stated) here?
**A.** The TGI was 27.4 µM.

**Q.** How did the TGI turn out when `CC(C)CC(=O)OC[n+]1ccc(-c2c(COC(=O)NC(C)C)c(COC(=O)NC(C)C)c3n2CCC3)cc1` was run?
**A.** Its TGI is > 100 µM.
